{"source": "patent US6642216B2", "about": "“Isoprenoid pathway inhibitors for stimulating bone growth” (ZymoGenetics Corporation, priority 1996, dated 2003)", "key": {"[1]": {"test_system": "neonatal mouse calvaria", "experiment": "Neonatal mouse calvaria assay (in vitro bone formation)", "assay_type": "cell-based", "set-up": "Osteoblast Number, % increase over vehicle control / New Bone Area, % increase over vehicle control: concentration or dose not given beside the values", "protocol": "Briefly, four days after birth, the front and parietal bones of ICR Swiss white mouse pups are removed by microdissection and split along the sagittal suture.\nThree μm sections of the calvaria are prepared. Representative sections are selected for histomorphometric assessment of bone formation or bone resorption. Bone changes are measured on sections cut 200 μm apart. Osteoblasts and osteoclasts are identified by their distinctive morphology.\nSelected compounds and appropriate controls were assayed in vitro (ex vivo) for bone formation activity (described above in “Neonatal Mouse Calvaria Assay (in vitro)”). Histomorphometrical assessments of ex vivo calvaria were carried out using an OsteoMetrics bone morphometry measurement program, according to the manufacturer's instructions. Measurements were determined using either a 10- or 20-fold objective with a standard point counting eyepiece graticule.\nNew bone formation was determined (using a 10× objective) by measuring the new bone area formed in one field in 3 representative sections of each bone (4 bones per group). Each measurement was carried out ½ field distance from the end of the suture. Both total bone and old bone area were measured. Data were expressed as new bone area in mm^2.\nOsteoblast numbers were determined by point counting. The number of osteoblast cells lining the bone surface on both sides of the bone were counted in one field using a 20× objective. Data were expressed as osteoblast numbers/mm of bone surface.\nThe results were calculated as new bone area in mm^2×10^−3, as above."}, "[2]": {"test_system": "ICR Swiss white mice calvaria", "experiment": "In vivo murine calvarial bone growth assay", "set-up": "species or system mouse", "protocol": "Male ICR Swiss white mice, aged 4-6 weeks and weighing 13-26 gm, are employed, using 4-5 mice per group. The calvarial bone growth assay is performed as described in PCT application WO 95/24211, incorporated by reference. Briefly, the test compound or appropriate control vehicle is injected into the subcutaneous tissue over the right calvaria of normal mice. Typically, the control vehicle is the vehicle in which the compound was solubilized, and is PBS containing 5% DMSO or is PBS containing Tween (2 μl/10 ml). The animals are sacrificed on day 14 and bone growth measured by histomorphometry. Bone samples for quantitation are cleaned from adjacent tissues and fixed in 10% buffered formalin for 24-48 hours, decalcified in 14% EDTA for 1-3 weeks, processed through graded alcohols; and embedded in paraffin wax. Three to five μm sections of the calvaria are prepared, and representative sections are selected for histomorphometric assessment of the effects on bone formation and bone resorption. Sections are measured by using a camera lucida attachment to trace directly the microscopic image onto a digitizing plate. Bone changes are measured on sections cut 200 μm apart, over 4 adjacent 1×1 mm fields on both the injected and noninjected sides of the calvaria. New bone is identified by its characteristic woven structure, and osteoclasts and osteoblasts are identified by their distinctive morphology. Histomorphometry software (OsteoMeasure, Osteometrix, Inc., Atlanta) is used to process digitizer input to determine cell counts and measure areas or perimeters.\nThe results are reported as a measurement of total bone area (and % increase in area over vehicle control), as shown below."}, "[3]": {"test_system": "BMP-2 promoter", "experiment": "ABA assay: BMP-2 promoter-luciferase reporter in 2T3-BMP-2-LUC osteoblast cells", "assay_type": "cell-based, mouse", "protocol": "These transformed cells are then evaluated for the production of the reporter gene product; compounds that activate the BMP promoter will drive production of the reporter protein, which can be readily assayed.\nThe cells were cultured using α-MEM, 10% FCS with 1% penicillin/streptomycin and 1% glutamine (“plating medium”), and were split 1:5 once per week. For the assay, the cells were resuspended in a plating medium containing 4% FCS, plated in microtiter plates at a concentration of 5×10^3 cells (in 50 μl)/well, and incubated for 24 hours at 37° C. in 5% CO2. To initiate the assay, 50 μl of the test compound or the control in DMSO was added at 2× concentration to each well, so that the final volume was 100 μl. The final serum concentration was 2% FCS, and the final DMSO concentration was 1%.\nThe treated cells were incubated for 24 hours at 37° C. and 5% CO2. The medium was then removed, and the cells were rinsed three times with PBS. After removal of excess PBS, 25 μl of 1× cell culture lysing reagent (Promega #E153A) was added to each well and incubated for at least ten minutes. Optionally, the plates/samples could be frozen at this point. To each well was added 50 μl of luciferase substrate (Promega #E152A; 10 ml Promega luciferase assay buffer per 7 mg Promega luciferase assay substrate). Luminescence was measured on an automated 96-well luminometer, and was expressed as either picograms of luciferase activity per well or as picograms of luciferase activity per microgram of protein.\nAlternatively, the reactivity of a compound to be tested can be compared directly to a negative control containing no compound."}, "[4]": {"conditions": "Experiment 3, 8.88178E μg/ml (0.002193 μM lovastatin, 0.002087 μM fluvastatin)"}}, "data": [{"compound": "CC[C@H](C)C(=O)O[C@H]1C[C@@H](C)C=C2C=C[C@H](C)[C@H](CC[C@@H]3C[C@@H](O)CC(=O)O3)[C@H]21", "note": "[Lovastatin, lovastatin]", "values": [{"measurement": "inducing bone formation, compared with BMP-2 and bFGF", "setting": "[1]", "value": "as good as, or better than"}, {"measurement": "New Bone Area", "setting": "[1]; Experiment 3, 3 days", "value": 8.2, "unit": "mm^2 × 10^−3"}, {"measurement": "New Bone Area, % increase over vehicle control", "setting": "[1]; Experiment 3, 3 days", "value": 182, "unit": "%"}, {"measurement": "Osteoblast Number", "setting": "[1]; Experiment 3, 3 days", "value": 128, "unit": "Obs/field"}, {"measurement": "Osteoblast Number, % increase over vehicle control", "setting": "[1]; Experiment 3, 3 days", "value": 152, "unit": "%"}, {"measurement": "% increase in total bone area over vehicle control", "setting": "[2]; 0.1 mg/kg/day", "value": 0, "unit": "%"}, {"measurement": "Total Bone Area", "setting": "[2]; 0.1 mg/kg/day", "value": 162, "unit": "μm^2"}, {"measurement": "% increase in total bone area over vehicle control", "setting": "[2]; 1 mg/kg/day", "value": 41, "unit": "%"}, {"measurement": "Total Bone Area", "setting": "[2]; 1 mg/kg/day", "value": 237, "unit": "μm^2"}, {"measurement": "% increase in total bone area over vehicle control", "setting": "[2]; 5 mg/kg/day", "value": 40, "unit": "%"}, {"measurement": "Total Bone Area", "setting": "[2]; 5 mg/kg/day", "value": 235, "unit": "μm^2"}, {"measurement": "% increase in total bone area over vehicle control", "setting": "[2]; 10 mg/kg/day", "value": 42, "unit": "%"}, {"measurement": "Total Bone Area", "setting": "[2]; 10 mg/kg/day", "value": 239, "unit": "μm^2"}, {"measurement": "bone stimulatory effect compared with 12.5 μg/kg/day bFGF", "setting": "[2]; 10 mg/kg/day", "value": "comparable"}, {"measurement": "effect on total bone area", "setting": "[2]; varying doses", "value": "dose-dependent increase in total bone area"}, {"measurement": "dose-dependent stimulatory effect in the ABA assay", "setting": "[3]", "value": "dose-dependent stimulatory effect"}, {"measurement": "% 59-0008 Response", "setting": "[3]; Experiment 1, 0.195312 μg/ml", "value": 22.840, "unit": "%"}, {"measurement": "Fold increase over negative control", "setting": "[3]; Experiment 1, 0.195312 μg/ml", "value": 2.011, "unit": "fold"}, {"measurement": "% 59-0008 Response", "setting": "[3]; Experiment 1, 0.390625 μg/ml", "value": 27.830, "unit": "%"}, {"measurement": "Fold increase over negative control", "setting": "[3]; Experiment 1, 0.390625 μg/ml", "value": 2.232, "unit": "fold"}, {"measurement": "% 59-0008 Response", "setting": "[3]; Experiment 1, 0.78125 μg/ml", "value": 35.220, "unit": "%"}, {"measurement": "Fold increase over negative control", "setting": "[3]; Experiment 1, 0.78125 μg/ml", "value": 2.559, "unit": "fold"}, {"measurement": "% 59-0008 Response", "setting": "[3]; Experiment 1, 1.5625 μg/ml", "value": 67.080, "unit": "%"}, {"measurement": "Fold increase over negative control", "setting": "[3]; Experiment 1, 1.5625 μg/ml", "value": 3.970, "unit": "fold"}, {"measurement": "% 59-0008 Response", "setting": "[3]; Experiment 1, 3.125 μg/ml", "value": 111.730, "unit": "%"}, {"measurement": "Fold increase over negative control", "setting": "[3]; Experiment 1, 3.125 μg/ml", "value": 5.947, "unit": "fold"}, {"measurement": "% 59-0008 Response", "setting": "[3]; Experiment 1, 6.25 μg/ml", "value": 126.230, "unit": "%"}, {"measurement": "Fold increase over negative control", "setting": "[3]; Experiment 1, 6.25 μg/ml", "value": 6.589, "unit": "fold"}, {"measurement": "% 59-0008 Response", "setting": "[3]; Experiment 1, 12.5 μg/ml", "value": 153.790, "unit": "%"}, {"measurement": "Fold increase over negative control", "setting": "[3]; Experiment 1, 12.5 μg/ml", "value": 7.809, "unit": "fold"}, {"measurement": "% 59-0008 Response", "setting": "[3]; Experiment 1, 25 μg/ml", "value": 144.730, "unit": "%"}, {"measurement": "Fold increase over negative control", "setting": "[3]; Experiment 1, 25 μg/ml", "value": 7.408, "unit": "fold"}, {"measurement": "% 59-0008 Response", "setting": "[3]; Experiment 1, 50 μg/ml", "value": "−22.510", "unit": "%"}, {"measurement": "Fold increase over negative control", "setting": "[3]; Experiment 1, 50 μg/ml", "value": 0.003, "unit": "fold"}, {"measurement": "% 59-0008 Response", "setting": "[3]; Experiment 1, 200 μg/ml", "value": "−22.650", "unit": "%"}, {"measurement": "Fold increase over negative control", "setting": "[3]; Experiment 1, 200 μg/ml", "value": "−0.003", "unit": "fold"}, {"measurement": "% 59-0008 Response", "setting": "[3]; Experiment 3, 0.002842 μg/ml", "value": 1.050, "unit": "%"}, {"measurement": "Fold increase over negative control", "setting": "[3]; Experiment 3, 0.002842 μg/ml", "value": 1.032, "unit": "fold"}, {"measurement": "% 59-0008 Response", "setting": "[3]; Experiment 3, 0.009094 μg/ml", "value": 2.720, "unit": "%"}, {"measurement": "Fold increase over negative control", "setting": "[3]; Experiment 3, 0.009094 μg/ml", "value": 1.083, "unit": "fold"}, {"measurement": "% 59-0008 Response", "setting": "[3]; Experiment 3, 0.029103 μg/ml", "value": 1.550, "unit": "%"}, {"measurement": "Fold increase over negative control", "setting": "[3]; Experiment 3, 0.029103 μg/ml", "value": 1.048, "unit": "fold"}, {"measurement": "% 59-0008 Response", "setting": "[3]; Experiment 3, 0.093132 μg/ml", "value": 3.210, "unit": "%"}, {"measurement": "Fold increase over negative control", "setting": "[3]; Experiment 3, 0.093132 μg/ml", "value": 1.099, "unit": "fold"}, {"measurement": "% 59-0008 Response", "setting": "[3]; Experiment 3, 0.298023 μg/ml", "value": 10.860, "unit": "%"}, {"measurement": "Fold increase over negative control", "setting": "[3]; Experiment 3, 0.298023 μg/ml", "value": 1.333, "unit": "fold"}, {"measurement": "% 59-0008 Response", "setting": "[3]; Experiment 3, 0.953674 μg/ml", "value": 35.300, "unit": "%"}, {"measurement": "Fold increase over negative control", "setting": "[3]; Experiment 3, 0.953674 μg/ml", "value": 2.083, "unit": "fold"}, {"measurement": "% 59-0008 Response", "setting": "[3]; Experiment 3, 3.051757 μg/ml", "value": 103.260, "unit": "%"}, {"measurement": "Fold increase over negative control", "setting": "[3]; Experiment 3, 3.051757 μg/ml", "value": 4.169, "unit": "fold"}, {"measurement": "% 59-0008 Response", "setting": "[3]; Experiment 3, 9.765625 μg/ml", "value": 148.030, "unit": "%"}, {"measurement": "Fold increase over negative control", "setting": "[3]; Experiment 3, 9.765625 μg/ml", "value": 5.543, "unit": "fold"}, {"measurement": "% 59-0008 Response", "setting": "[3]; Experiment 3, 31.25 μg/ml", "value": 166.770, "unit": "%"}, {"measurement": "Fold increase over negative control", "setting": "[3]; Experiment 3, 31.25 μg/ml", "value": 6.118, "unit": "fold"}, {"measurement": "% 59-0008 Response", "setting": "[3]; [4]", "value": 0.620, "unit": "%"}, {"measurement": "Fold increase over negative control", "setting": "[3]; [4]", "value": 1.019, "unit": "fold"}]}]}
